This assay in a line: Angiotensin II antagonism at the rat adrenal gland, IC50 (method of A.T. Chiu et al., J. Pharmacol. Exp. Therap. 250, 867-874 (1989)). The format is binding, Ratten. The settings on record: an der Rattennebenniere; Iy and Iz tested as K-Salze; read-out: IC 50-Werte. From the text: Diese Wirkungen können nach üblichen in vitro- oder in vivo-Methoden ermittelt werden, wie sie z.B. in der US-PS 4 880 804, der US-PS 5 036 048 und der WO 91/14367 beschrieben sind, ferner von A.T. Chiu et al., J. Pharmacol. Exp. Therap. 250, 867-874 (1989), und von P.C. Wong et al., ibid. 252, 719-725 (1990; in vivo, an Ratten).
So zeigten die K-Salze von 1,2-Dihydro-1-(2'-(1H-5-tetrazolyl)-biphenylyl-4-methyl)-2-oxo-3-N-methyl- bzw. -3-N-isopropyl-N-methylsulfonylaminomethyl-6-butyl-pyridin ("Iy" bzw. "Iz") an der Rattennebenniere (Versuchsmethodik vgl. A.T.Chiu et al., l.c.) IC 50-Werte von 1,15 bzw. 1,9 nM.l-¹, wahrend das bekannte 1,2-Dihydro-1-(2'-(1H-5-tetrazolyl)biphenylyl-4-methyl)-2-oxo-3-methylsulfonylaminomethyl-6-butyl-pyridin (vgl. EP 0 530 702 A1, Beispiel 22) im gleichen Test einen IC 50-Wert von 4,0 nM · l⁻¹ aufwies.
For `CCCCc1ccc(CNS(C)(=O)=O)c(=O)n1Cc1ccc(-c2ccccc2-c2nn[nH]n2)cc1` [EP 0 530 702 A1, Beispiel 22, 1,2-Dihydro-1-(2'-(1H-5-tetrazolyl)biphenylyl-4-methyl)-2-oxo-3-methylsulfonylaminomethyl-6-butyl-pyridin, reference compound], the IC50 came to 4 nM.

In the case of `CCCCc1ccc(CN(C)S(C)(=O)=O)c(=O)n1Cc1ccc(-c2ccccc2-c2nn[nH]n2)cc1` [Iy, 1,2-Dihydro-1-(2'-(1H-5-tetrazolyl)-biphenylyl-4-methyl)-2-oxo-3-N-methyl-N-methylsulfonyl-aminomethyl-6-butyl-pyridin], the IC50 was found to be 1.15 nM.

On to `CCCCc1ccc(CN(C(C)C)S(C)(=O)=O)c(=O)n1Cc1ccc(-c2ccccc2-c2nn[nH]n2)cc1` [Iz, 1,2-Dihydro-1-(2'-(1H-5-tetrazolyl)-biphenylyl-4-methyl)-2-oxo-3-N-isopropyl-N-methylsulfonyl-aminomethyl-6-butyl-pyridin], for which the IC50 came out at 1.9 nM.
